In ChEMBL document CHEMBL1201862, “PubChem BioAssay data set” (2004):
Activity calls are given as the source filed them.

Legend:
[1] = molecular target: T1, Endoribonuclease toxin MazF (Escherichia coli K-12, UniProt P0AE70); assay: substrate-only fluorescence increase artefacts – biochemical, single-stranded RNase substrate, counter-screen for MazEF activator project, dose response (AID 588502); assay type: functional
T1 sequence (P0AE70 whole entry): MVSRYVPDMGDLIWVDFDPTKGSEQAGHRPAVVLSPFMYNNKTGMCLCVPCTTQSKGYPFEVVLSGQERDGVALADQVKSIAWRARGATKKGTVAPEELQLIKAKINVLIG

[2] = molecular target: T1, Endoribonuclease toxin MazF; assay: activation of MazEF endoribonuclease cleavage – biochemical, fluorescence, single-stranded RNA substrate, uHTS hits, dose response (AID 588481); assay type: functional
[3] = molecular target: T2, Heat shock factor protein 1 (Mus musculus, UniProt P38532); assay: decrease of HSF1-responsive luciferase luminescence – cell-based, NIH3T3, dose retest, confirmation (AID 2382); assay type: functional;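 further: NIH3T3 fibroblasts with HSF1-driven luciferase reporter stressed by proteasome inhibitor MG132; luminescence from HSF1-driven luciferase expression after 8 hours of MG132 stress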
T2 sequence (P38532 whole entry): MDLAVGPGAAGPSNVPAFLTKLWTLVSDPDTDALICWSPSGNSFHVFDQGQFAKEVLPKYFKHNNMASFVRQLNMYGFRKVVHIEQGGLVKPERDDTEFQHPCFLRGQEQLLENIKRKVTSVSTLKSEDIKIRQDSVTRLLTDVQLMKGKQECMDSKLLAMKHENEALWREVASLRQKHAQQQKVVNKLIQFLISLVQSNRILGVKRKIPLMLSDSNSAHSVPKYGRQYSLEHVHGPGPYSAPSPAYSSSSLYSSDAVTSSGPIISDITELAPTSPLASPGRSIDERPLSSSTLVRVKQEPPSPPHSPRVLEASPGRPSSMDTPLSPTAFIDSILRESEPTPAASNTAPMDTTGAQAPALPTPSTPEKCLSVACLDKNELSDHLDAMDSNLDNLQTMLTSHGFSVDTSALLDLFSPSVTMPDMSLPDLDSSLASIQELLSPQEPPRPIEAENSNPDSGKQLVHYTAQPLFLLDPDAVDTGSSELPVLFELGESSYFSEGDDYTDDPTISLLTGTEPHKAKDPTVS

[4] = molecular target: Induced myeloid leukemia cell differentiation protein Mcl-1 (Homo sapiens, UniProt Q07820); assay type: functional
Induced myeloid leukemia cell differentiation protein Mcl-1, sequence (Q07820 whole entry): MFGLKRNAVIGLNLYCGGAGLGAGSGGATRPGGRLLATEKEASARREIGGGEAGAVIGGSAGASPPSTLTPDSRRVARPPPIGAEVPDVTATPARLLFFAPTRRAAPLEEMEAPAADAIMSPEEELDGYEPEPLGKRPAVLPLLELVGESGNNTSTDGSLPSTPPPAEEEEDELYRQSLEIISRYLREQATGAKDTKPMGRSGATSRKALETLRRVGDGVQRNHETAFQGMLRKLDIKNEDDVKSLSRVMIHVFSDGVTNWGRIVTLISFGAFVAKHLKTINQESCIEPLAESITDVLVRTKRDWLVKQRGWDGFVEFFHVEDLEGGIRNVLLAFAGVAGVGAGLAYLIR

[5] = molecular target: 26S proteasome non-ATPase regulatory subunit 14 (Homo sapiens, UniProt O00487); assay: inhibition of proteasome subunit RPN11 – biochemical, fluorescence polarization, uHTS hits, confirmation (AID 602368); assay type: functional
26S proteasome non-ATPase regulatory subunit 14, sequence (O00487 whole entry): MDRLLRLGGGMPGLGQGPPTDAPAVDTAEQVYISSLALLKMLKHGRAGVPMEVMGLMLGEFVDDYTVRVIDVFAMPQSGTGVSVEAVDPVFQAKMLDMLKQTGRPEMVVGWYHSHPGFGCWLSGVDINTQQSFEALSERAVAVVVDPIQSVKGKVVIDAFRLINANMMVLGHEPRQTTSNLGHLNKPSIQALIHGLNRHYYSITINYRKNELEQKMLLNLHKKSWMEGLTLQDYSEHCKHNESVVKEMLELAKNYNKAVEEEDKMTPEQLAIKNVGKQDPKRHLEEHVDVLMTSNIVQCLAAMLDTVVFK

[6] = molecular target: Prothrombin (Bos taurus, UniProt P00735); assay: thrombin protease inhibitors – biochemical, fluorescence polarization, uHTS hits, dose response (AID 602369); assay type: functional
[7] = molecular target: 72 kDa type IV collagenase (Homo sapiens, UniProt P08253); assay: Dose Response validation of uHTS RPN11 inhibitor hits using a MMP-2 Fluorescence assay.; assay type: functional
72 kDa type IV collagenase, sequence (P08253 whole entry): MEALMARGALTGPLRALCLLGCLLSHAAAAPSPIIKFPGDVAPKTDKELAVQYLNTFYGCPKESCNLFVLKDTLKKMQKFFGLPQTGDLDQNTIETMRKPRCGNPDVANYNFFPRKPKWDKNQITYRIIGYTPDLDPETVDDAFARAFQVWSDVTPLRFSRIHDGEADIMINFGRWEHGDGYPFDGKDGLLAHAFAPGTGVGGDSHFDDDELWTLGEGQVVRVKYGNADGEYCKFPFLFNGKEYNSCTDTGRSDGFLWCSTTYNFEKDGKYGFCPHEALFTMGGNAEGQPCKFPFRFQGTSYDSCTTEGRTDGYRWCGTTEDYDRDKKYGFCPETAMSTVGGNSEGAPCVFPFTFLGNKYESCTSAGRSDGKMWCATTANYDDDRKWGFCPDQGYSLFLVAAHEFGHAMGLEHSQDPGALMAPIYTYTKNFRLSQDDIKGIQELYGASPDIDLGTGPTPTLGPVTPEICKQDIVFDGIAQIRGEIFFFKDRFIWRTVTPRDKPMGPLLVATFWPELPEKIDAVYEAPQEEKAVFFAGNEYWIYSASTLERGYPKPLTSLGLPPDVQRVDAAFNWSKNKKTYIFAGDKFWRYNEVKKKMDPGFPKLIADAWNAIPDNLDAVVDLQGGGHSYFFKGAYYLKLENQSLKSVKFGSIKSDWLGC

[8] = molecular target: Heat shock protein HSP 90-alpha (Homo sapiens, UniProt P07900); assay type: functional, organism-based
[9] = Counterscreen for activators of the function of SWI/SNF related, matrix associated, actin dependent regulator of chromatin, subfamily a, member 2 (SMARCA2, BRM): Luminescence-based cell-based high throughput dose response assay to identify non-selective compounds using the VP16 reporter assay.; assay type: functional
[10] = molecular target: SWI/SNF-related matrix-associated actin-dependent regulator of chromatin subfamily A member 2 (Homo sapiens, UniProt P51531); assay: Luminescence-based cell-based high throughput dose response assay to identify activators of the function of SWI/SNF related, matrix associated, actin dependent regulator of chromatin, subfamily a, member 2 (SMARCA2, BRM).; assay type: functional
SWI/SNF-related matrix-associated actin-dependent regulator of chromatin subfamily A member 2, sequence (P51531 whole entry): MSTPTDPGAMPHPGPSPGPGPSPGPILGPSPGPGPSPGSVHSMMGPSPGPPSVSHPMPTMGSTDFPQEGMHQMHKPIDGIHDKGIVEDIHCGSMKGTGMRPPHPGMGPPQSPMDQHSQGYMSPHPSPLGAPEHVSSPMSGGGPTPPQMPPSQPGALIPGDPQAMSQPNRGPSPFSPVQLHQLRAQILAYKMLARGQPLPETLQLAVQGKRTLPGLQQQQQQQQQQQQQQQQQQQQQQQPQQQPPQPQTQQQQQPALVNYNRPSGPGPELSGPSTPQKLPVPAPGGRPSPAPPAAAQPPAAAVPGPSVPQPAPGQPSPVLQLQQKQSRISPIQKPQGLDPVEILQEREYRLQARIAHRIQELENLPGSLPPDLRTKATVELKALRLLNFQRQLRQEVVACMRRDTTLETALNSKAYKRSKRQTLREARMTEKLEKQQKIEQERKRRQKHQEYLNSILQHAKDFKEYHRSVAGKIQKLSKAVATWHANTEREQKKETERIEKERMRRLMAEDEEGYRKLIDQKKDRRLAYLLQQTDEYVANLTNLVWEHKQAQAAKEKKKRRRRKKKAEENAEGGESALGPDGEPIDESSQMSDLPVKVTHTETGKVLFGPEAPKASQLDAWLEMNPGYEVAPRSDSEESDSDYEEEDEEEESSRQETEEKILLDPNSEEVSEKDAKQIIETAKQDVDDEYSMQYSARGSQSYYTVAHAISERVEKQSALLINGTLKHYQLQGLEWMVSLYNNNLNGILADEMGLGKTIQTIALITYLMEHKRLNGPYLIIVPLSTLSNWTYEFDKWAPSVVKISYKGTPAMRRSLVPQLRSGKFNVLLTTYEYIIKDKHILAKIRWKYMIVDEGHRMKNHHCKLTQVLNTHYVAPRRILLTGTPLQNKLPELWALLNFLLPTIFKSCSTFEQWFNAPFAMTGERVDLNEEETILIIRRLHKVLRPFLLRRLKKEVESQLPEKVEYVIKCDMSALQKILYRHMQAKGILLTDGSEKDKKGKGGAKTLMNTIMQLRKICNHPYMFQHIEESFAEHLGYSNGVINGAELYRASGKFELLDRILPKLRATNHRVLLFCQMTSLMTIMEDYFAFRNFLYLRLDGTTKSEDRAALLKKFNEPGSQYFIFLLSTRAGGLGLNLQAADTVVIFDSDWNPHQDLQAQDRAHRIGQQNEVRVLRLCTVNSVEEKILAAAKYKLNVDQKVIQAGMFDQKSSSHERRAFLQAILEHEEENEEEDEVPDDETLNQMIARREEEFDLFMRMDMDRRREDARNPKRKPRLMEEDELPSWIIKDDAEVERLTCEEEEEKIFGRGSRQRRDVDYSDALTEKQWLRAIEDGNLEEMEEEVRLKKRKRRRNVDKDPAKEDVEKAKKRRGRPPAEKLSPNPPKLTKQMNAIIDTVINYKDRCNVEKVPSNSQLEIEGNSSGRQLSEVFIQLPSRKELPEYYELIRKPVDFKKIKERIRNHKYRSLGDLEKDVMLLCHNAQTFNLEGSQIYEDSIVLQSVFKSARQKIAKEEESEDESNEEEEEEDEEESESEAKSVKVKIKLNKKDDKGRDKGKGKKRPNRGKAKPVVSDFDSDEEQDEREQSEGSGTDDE

[11] = molecular target: DNA dC->dU-editing enzyme APOBEC-3G (Homo sapiens, UniProt Q9HC16); assay type: functional;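 further: Dose-response counterscreen measuring inhibition of APOBEC3G DNA deaminase activity, run while confirming APOBEC3A inhibitors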
DNA dC->dU-editing enzyme APOBEC-3G, sequence (Q9HC16 whole entry): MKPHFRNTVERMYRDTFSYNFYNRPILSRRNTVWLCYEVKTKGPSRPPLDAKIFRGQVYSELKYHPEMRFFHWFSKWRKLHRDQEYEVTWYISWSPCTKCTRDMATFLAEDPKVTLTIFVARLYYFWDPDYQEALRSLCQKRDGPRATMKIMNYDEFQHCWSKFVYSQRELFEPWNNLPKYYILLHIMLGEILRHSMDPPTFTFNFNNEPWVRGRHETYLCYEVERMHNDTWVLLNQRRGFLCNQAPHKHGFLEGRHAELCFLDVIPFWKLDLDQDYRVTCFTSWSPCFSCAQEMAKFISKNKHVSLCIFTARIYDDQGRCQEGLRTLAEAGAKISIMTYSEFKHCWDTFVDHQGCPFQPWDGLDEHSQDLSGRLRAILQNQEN

[12] = molecular target: DNA dC->dU-editing enzyme APOBEC-3A (Homo sapiens, UniProt P31941); assay: Dose Response confirmation of small molecule APOBEC3A DNA Deaminase Inhibitors via a fluorescence-based single-stranded DNA deaminase assay. [Related pubchem assays (depositor defined):AID493011, AID493024]; assay type: functional
DNA dC->dU-editing enzyme APOBEC-3A, sequence (P31941 whole entry): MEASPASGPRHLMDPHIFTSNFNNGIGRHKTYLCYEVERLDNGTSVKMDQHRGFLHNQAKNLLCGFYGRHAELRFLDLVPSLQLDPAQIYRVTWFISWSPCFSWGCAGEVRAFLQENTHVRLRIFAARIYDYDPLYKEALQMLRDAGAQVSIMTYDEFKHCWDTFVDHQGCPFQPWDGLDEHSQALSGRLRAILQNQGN

[13] = viability of HCT116 lacking mutant beta-catenin – cell-based, human colon tumor, dose response (AID 1045); assay type: functional;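 further: HCT116 colon tumor cells with beta catenin knocked out; cells exposed to compound for 60 hours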
[14] = viability of PTEN-deleted HCT116 cells – cell-based, HCT116 PTEN knockout, dose response (AID 1047); assay type: functional;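 further: HCT116 colon tumor cells with PTEN knocked out; cells exposed to compound for 60 hours before readout; potency for loss of cell viability measured by luminescence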
[15] = Counterscreen for inhibitors of Trypanosoma brucei methionyl tRNA synthetase (MetRS): Luminescence-based cell-based high throughput dose response assay to identify compounds that are cytotoxic to Jurkat human T lymphocyte cells.; assay type: functional
[16] = molecular target: T3, DNA repair protein RAD52 homolog (Homo sapiens, UniProt P43351); assay type: functional, biochemical
T3 sequence (P43351 whole entry): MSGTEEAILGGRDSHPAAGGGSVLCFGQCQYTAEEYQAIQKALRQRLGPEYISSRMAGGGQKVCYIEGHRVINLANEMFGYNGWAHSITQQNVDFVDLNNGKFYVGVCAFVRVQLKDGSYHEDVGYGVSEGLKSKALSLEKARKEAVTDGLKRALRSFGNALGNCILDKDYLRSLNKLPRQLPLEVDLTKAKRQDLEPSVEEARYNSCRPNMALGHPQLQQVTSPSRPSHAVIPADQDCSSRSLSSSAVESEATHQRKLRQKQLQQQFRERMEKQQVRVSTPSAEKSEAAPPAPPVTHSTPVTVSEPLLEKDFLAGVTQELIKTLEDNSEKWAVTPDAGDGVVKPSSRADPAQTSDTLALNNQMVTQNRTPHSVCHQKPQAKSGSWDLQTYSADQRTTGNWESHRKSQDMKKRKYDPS

[17] = off-target signal loss in HeLa-CEM21 co-culture – HeLa F-luc CTL cells, cherry-picked, counter-screen for HIV-1 Env fusion inhibitor project, dose response (AID 652040); assay type: functional, cell-based;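 further: potency for signal decrease marking cytotoxic or nonspecific inhibition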
[18] = viability loss in CEM21 cells – cell-based, CellTiter-Glo luminescence, cherry-picked, cytotoxicity control for viral fusion inhibitor project, dose response (AID 652042); assay type: functional;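 further: potency for signal decrease meaning cytotoxicity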
[19] = blockers of HIV-1 envelope-mediated cell-cell fusion – cherry-pick, dose response (AID 652057); assay type: functional, cell-based
[20] = HIV-1 AD8 envelope cell-cell fusion blockers – cherry-pick, dose response (AID 652062); assay type: functional, cell-based;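 further: luciferase signal from cell-cell fusion driven by HIV-1 clade B AD8 Env; potency is for inhibitors of fusion seen as a drop in luminescence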
[21] = intracellular Trypanosoma cruzi inhibitors in host cells – cell-based, plate reader, cherry-pick samples, set 3, dose response (AID 651818); assay type: functional;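 further: compounds incubated with infected cells for about four days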
[22] = molecular target: T4, Trace amine-associated receptor 1 (Homo sapiens, UniProt Q96RJ0); assay: Fluorescence-based cell-based high throughput dose response assay to identify agonists of the human trace amine associated receptor 1 (TAAR1).; assay type: functional
T4 sequence (Q96RJ0 whole entry): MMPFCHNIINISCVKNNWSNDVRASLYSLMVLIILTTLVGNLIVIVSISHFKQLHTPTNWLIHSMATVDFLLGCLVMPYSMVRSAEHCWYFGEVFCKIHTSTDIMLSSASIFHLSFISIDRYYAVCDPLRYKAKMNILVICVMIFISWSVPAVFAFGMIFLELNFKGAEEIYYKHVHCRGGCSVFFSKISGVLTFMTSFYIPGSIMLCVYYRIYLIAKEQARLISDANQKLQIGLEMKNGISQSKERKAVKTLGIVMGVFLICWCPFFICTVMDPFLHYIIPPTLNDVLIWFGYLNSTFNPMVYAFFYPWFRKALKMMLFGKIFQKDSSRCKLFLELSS

[23] = cells; assay type: functional, cell-based
[24] = cells; assay type: functional, cell-based; remark: listed apart in the source
[25] = molecular target: T4, Trace amine-associated receptor 1; assay: Counterscreen for agonists of the human trace amine associated receptor 1 (hTAAR1): Fluorescence-based cell-based high throughput dose response assay to identify hTAAR1 agonist that also desensitize TAAR1 receptor response.; assay type: functional
[26] = toxicity to human hepatoma HepG2 cells – cell-based, cherry-picked samples, cytotoxicity control, dose response (AID 1159577); assay type: functional
[27] = P. falciparum Dd2 growth inhibitors, dose response, SYBR Green, cherry-picked samples (AID 1159567); assay type: functional, cell-based
[28] = Dd2 malaria parasite growth inhibition potency – SYBR Green, dry powder samples, dose response (AID 1159566); assay type: functional, cell-based;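 further: potency for growth inhibition with lower SYBR green DNA signal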
[29] = growth inhibition of yeast DHODH-expressing 3D7 parasites – SYBR Green, dry powder samples, dose response (AID 1159570); assay type: functional, cell-based;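 further: parasite growth measured after 72 hours of compound exposure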
[30] = toxicity to human HepG2 hepatoma cells – cell-based, plate reader, dry powder samples, cytotoxicity control, dose response (AID 1159569); assay type: functional;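 further: inhibitor potency with signal falling toward the positive control level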
[31] = growth inhibition of PfATP4-mutant resistant parasites – NITD609-resistant line, SYBR Green, dry powder, dose response (AID 1159571); assay type: functional, cell-based;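 further: parasites synchronized at ring stage by sorbitol before testing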

## NC(=O)c1c(NC(=O)C2COc3ccccc3O2)sc2c1CCN(Cc1ccccc1)C2 (stereo not drawn)
[1]
  EC50: 85.1 µM (inactive)
[2]
  EC50: 12.1 µM (active)
[3]
  EC50: > 195 µM (not active)

## O=C1SC(SCc2ccccc2Cl)=N/C1=C\c1ccc(C(=O)O)cc1
[4]
  IC50: 5.02 µM (active)

## N#Cc1c(-c2ccco2)cc(-c2ccc(F)cc2)nc1N
[5]
  IC50: 15.8 µM (active)
[6]
  IC50: 20.9 µM (active)
[7]
  IC50: > 100 µM (inactive)

## O=C(C1CCN(C2CC(=O)N(c3cccc(Cl)c3)C2=O)CC1)N1CCCC1 (stereo not drawn)
[8]
  AC50: 4.21 µM (active)

## O=C1CNC(=S)N1c1nc2ccccc2s1
[9]
  EC50: > 91.2 µM (inactive)
[10]
  EC50: > 91.2 µM (inactive)

## C=CCn1c(NC(=O)c2ccc(C)cc2)c(C#N)sc1=N
[11]
  IC50: 4.44 µM (active)
[12]
  IC50: 3.47 µM (active)

## COc1cccc(-n2c(SCC(N)=O)nc3ccccc3c2=O)c1
[5]
  IC50: 55.9 µM (active)
[6]
  IC50: 58.2 µM (active)
[7]
  IC50: > 100 µM (inactive)

## CCC1C/C(=C\c2cccnc2)C(=O)/C(=C/c2cccnc2)C1 (stereo not drawn)
[13]
  EC50: 0.836 µM (active)
[14]
  EC50: 1.01 µM (active)
[8]
  AC50: 12.7 µM (active)

## Cc1ccc(C(=O)NN2C(=O)/C(=C/c3nc4ccccc4[nH]3)SC2=S)cc1
[15]
  IC50: 36.7 µM (inactive)

## O=C(c1ccc(Cn2c(=S)[nH]c3ccc(N4CCOCC4)cc3c2=O)cc1)N1CCC(N2CCCCC2)CC1
[16]
  AC50: 13.9 µM (active)

## CCn1c(SCC(=O)N2CCN(c3ccc(Cl)cc3)CC2)nc2ccccc2c1=O
[11]
  IC50: 2.57 µM (active)
[12]
  IC50: 2.83 µM (active)

## Cc1ccc(C)c(CNc2ccc(S(=O)(=O)N3CCCCC3)cc2)c1
[17]
  AC50: < 0.26 µM (active)
[18]
  AC50: 63.8 µM (active)
[19]
  AC50: 50.5 µM (active)
[20]
  AC50: 2.31 µM (active)

## C[C@H]1CN([C@@H](C)CO)C(=O)c2cccc(NC(=O)Nc3ccc(C(F)(F)F)cc3)c2O[C@H]1CN(C)Cc1ccc2c(c1)OCO2
[21]
  AC50: 1.77 µM (active)

## CCOC(=O)[C@]12CCCC=C1N(Cc1ccc3c(c1)OCO3)C(=O)[C@H](CC(=O)NCCc1ccccc1OC)C2
[22]
  EC50: 4.06 µM (active)
[23]
  EC50: > 29.9 µM (inactive)
[24]
  IC50: > 29.9 µM (inactive)
[25]
  IC50: 5.85 µM (active)

## C[C@H]1CN([C@@H](C)CO)C(=O)c2cccc(NC(=O)CCCCCC(=O)Nc3ccccc3N)c2O[C@H]1CN(C)Cc1ccc(C(F)(F)F)cc1
[21]
  AC50: 3.96 µM (active)

## C[C@@H]1CN([C@@H](C)CO)C(=O)c2cccc(NC(=O)Nc3ccc(F)cc3)c2O[C@@H]1CN(C)Cc1ccc(-c2ccccc2)cc1
[21]
  AC50: 3.67 µM (active)

## C[C@H]1CN([C@@H](C)CO)C(=O)c2cc(NC(=O)Nc3ccc(C(F)(F)F)cc3)ccc2O[C@@H]1CN(C)Cc1ccc(C(F)(F)F)cc1
[21]
  AC50: 3.35 µM (active)

## C/C(=N\NS(=O)(=O)c1ccc([N+](=O)[O-])cc1)c1c[nH]c2ccccc12
[1]
  EC50: > 99 µM (inactive)
[2]
  EC50: 14.9 µM (active)

## Cc1ccccc1S(=O)(=O)N1[C@H](C#N)[C@@H](c2ccc(C#CC3CCCCC3)cc2)[C@@H]1CO
[26]
  AC50: > 39 µM (inactive)
[27]
  AC50: 6.83 µM (active)

## Cc1ccc(-c2ccc([C@H]3[C@@H](CO)N4CCCCN(S(=O)(=O)c5cccc(C)c5)C[C@H]34)cc2)cc1
[26]
  AC50: 9.89 µM (active)
[27]
  AC50: 1.31 µM (active)

## COc1ccc2c3c([nH]c2c1)[C@@H](CO)N(Cc1ccncc1)CC31CCN(Cc2ccc(-c3ccccn3)cc2)CC1
[28]
  AC50: 0.613 µM (active)
[26]
  AC50: > 39 µM (inactive)
[27]
  AC50: 0.546 µM (active)
[29]
  AC50: 0.649 µM (active)
[30]
  AC50: 21.2 µM (active)
[31]
  AC50: 0.623 µM (active)

## CCC(=O)N1[C@H](CO)[C@H](c2ccc(C3=CCCCC3)cc2)[C@H]1CNC1CCCC1
[26]
  AC50: > 42 µM (inactive)
[27]
  AC50: 4.7 µM (active)

## OCCNc1nc(Nc2cccc(O)c2)nc2ccccc12
[22]
  EC50: 0.0786 µM (active)
[23]
  EC50: > 29.9 µM (inactive)
[24]
  IC50: > 29.9 µM (inactive)
[25]
  IC50: 0.261 µM (active)

## C[N+]1(C)[C@@H]2CC[C@H]1C[C@@H](OC(=O)C(CO)c1ccccc1)C2 (stereo partly drawn)
[11]
  IC50: 3.18 µM (active)
[12]
  IC50: 2.23 µM (active)

## N=C(N)N/N=C/c1c(Cl)cccc1Cl [GUANABENZ]
[22]
  EC50: > 3.33 µM (active)
[23]
  EC50: > 29.9 µM (inactive)
[24]
  IC50: > 29.9 µM (inactive)
[25]
  IC50: 1.17 µM (active)
